Assay results: patent US12213966B2, “Methods of reducing plasma level of macrophage migratory inhibitory factor in patients” (priority 2020, dated 2025)

Key:
MIF = test: Open-label biomarker study in ALS subjects: serum MIF level before and after ibudilast; type: in vivo, human; conditions: 19 ALS subjects who completed the study
Method: This was a multi-center, open-label study with a 6 weeks Screening Phase, 36 weeks Treatment Phase, and a Follow-up Phase 4 weeks after the last dose. Ibudilast was orally administered 50 mg b.i.d. for a total daily dose of 100 mg/day.
The objectives of the Study were (i) to measure the impact of ibudilast on [11C]-PBR28 uptake in the motor cortices and brain stem measured by positron emission tomography (PET) imaging at 24 weeks; (ii) to measure the impact of ibudilast on several markers of neuro-inflammation measured by blood biomarkers; and (iii) to evaluate safety and tolerability.
Out of the 46 patients screened, eleven (11) individuals were screen failures. Total of the 35 enrolled subjects were enrolled. Of the 35 enrolled subjects, 16 subjects (45.7%) terminated the study early, and 19 subjects completed the trial. Of these 16 early study withdrawals, 11 (68.8%) were attributed to AEs and 5 (31.2%) were attributed to consent withdrawn.
Serum samples for the 19 subjects who completed the study were evaluated for MIF level before treatment and after treatment with ibudilast. • Mean (SD) pre-treatment serum MIF=422,989 (233,440) pg/ml • Mean (SD) post-treatment serum MIF=300,922 (113,843) pg/ml • Mean (SE) change/month=−19, 845 (8934) pg/ml (p=0.03)

[1] = in vivo; cited from earlier work
[2] = system: migration inhibitory factor (MIF); test: Randomized, double-blind, placebo-controlled study in COVID-19 subjects at risk for ARDS: plasma MIF level
Method: The study consisted of a Screening Phase followed by a Treatment and Follow-up Phase. Following the Screening Phase, if the subject met eligibility criteria, subject was administered treatment with ibudilast or placebo. Subjects received ibudilast 100 mg/d (50 mg b.i.d) or placebo every day for 7 days. Upon completion of the 7-day Treatment Phase, subject was followed-up at Day 14 and at Day 28 post baseline.
The following screening assessments were performed upon signing the ICF: inclusion/exclusion criteria review, physical examination, assess vital signs and O2 use, clinical status using the NIAID scale, ECG, draw blood for plasma cytokines that include: migration inhibitory factor (MIF), interleukin 1-beta (IL-1β), interleukin 6 (IL-6), tumor necrosis factor (TNF-α), and C-reactive protein (CRP). Pharmacokinetic (PK) samples, complete blood count (CBC), comprehensive metabolic panel (CMP), D-dimer, and coagulation tests were also be drawn.
On Day 1 (Baseline) of the Treatment Phase, hospitalized subjects were treated with ibudilast (oral, 50 mg (5 capsules) b.i.d) or placebo for a 7-day period. Subjects underwent study-related procedures including physical examination, vital signs, clinical status assessment using the NIAID scale, O2 use, ECG, blood collection of biomarkers, PK, CBC, CMP, D-dimer and coagulation and information on adverse events and concomitant medications were recorded.
The Follow-up Phase consisted of two visits, Day 14 (±3 d) and Day 28 (±3 d). • Day 14 (in-patient): On Day 14, conducted physical examination, clinical status, vital signs and O2 use, ECG, CBC, CMP, D-dimer, and coagulation tests, biomarkers, AE and conmed review, and recorded survival status. • Day 28 (telephone follow-up if patient was no longer hospitalized) On Day 28, clinical status and survival status were recorded.

[3] = COVID-19 subject A, ibudilast oral 50 mg b.i.d. for 7 days
[4] = COVID-19 subject B, ibudilast oral 50 mg b.i.d. for 7 days
[5] = COVID-19 subject C, ibudilast oral 50 mg b.i.d. for 7 days
[6] = COVID-19 subject D, ibudilast oral 50 mg b.i.d. for 7 days
[7] = mean of 4 COVID-19 subjects, ibudilast oral 50 mg b.i.d. for 7 days

For `CC(C)C(=O)c1c(C(C)C)nn2ccccc12` [ibudilast, 2-methyl-1-(2-(1-methylethyl)pyrazolo(1,5-a)pyridin-3-yl)1-propanone], the “Mean (SD) post-treatment serum MIF” value (MIF; after ibudilast oral 50 mg b.i.d. (100 mg/day), 36 weeks Treatment Phase) is listed as 300,922 (113,843) pg/ml, the “Mean (SD) pre-treatment serum MIF” value (MIF; before treatment) is listed as 422,989 (233,440) pg/ml and the CNS penetration [1] is listed as “good CNS penetration”. For the same compound, the “Difference of mean change of MIF level between ibudilast-treated group and placebo group” value ([2]; 4 ibudilast vs 4 placebo COVID-19 subjects, p value=0.00552) was 17277 pg/mL, the “Plasma MIF level pre-treatment, Subject A” value ([2]; COVID-19 subject A, ibudilast-treated group, before treatment) was 25267 pg/mL and the “Plasma MIF level difference (post minus pre), Subject A” value [2, 3] was -11130 pg/mL. For the same compound, the “Plasma MIF level post-treatment, Subject A” value [2, 3] was 14137 pg/mL, the “Plasma MIF level pre-treatment, Subject B” value ([2]; COVID-19 subject B, ibudilast-treated group, before treatment) was 21130 pg/mL and the “Plasma MIF level difference (post minus pre), Subject B” value [2, 4] was -1497 pg/mL. The “Plasma MIF level post-treatment, Subject B” value [2, 4] was 19633 pg/mL, the “Plasma MIF level pre-treatment, Subject C” value ([2]; COVID-19 subject C, ibudilast-treated group, before treatment) was 17763 pg/mL and the “Plasma MIF level difference (post minus pre), Subject C” value [2, 5] was -12037 pg/mL. The “Plasma MIF level post-treatment, Subject C” value [2, 5] was 5726 pg/mL, the “Plasma MIF level pre-treatment, Subject D” value ([2]; COVID-19 subject D, ibudilast-treated group, before treatment) was 27005 pg/mL and the “Plasma MIF level difference (post minus pre), Subject D” value [2, 6] was -18433 pg/mL. For the same compound, the “Plasma MIF level post-treatment, Subject D” value [2, 6] was 8572 pg/mL, the “Mean pre-treatment plasma MIF level” value ([2]; mean of 4 COVID-19 subjects, ibudilast-treated group, before treatment) was 22791.3 pg/mL and the “Mean change MIF level” value [2, 7] was -110774.3 pg/mL. For the same compound, the “Mean post-treatment plasma MIF level” value [2, 7] was 12017 pg/mL and the “Mean change MIF level” value ([2]; mean of 4 COVID-19 subjects, ibudilast oral 50 mg b.i.d. for 7 days, listed as Ibudilast) was -10774.3 pg/mL.
